We go through two compounds from patent publication US8222440B2, “Compounds and methods for the treatment of cancer” (The Texas A&M University System, priority 2006, dated 2012).

One data set concerns HL-60 leukemia cells. Description: Cytotoxicity assay: proliferation of HL-60 cells by 3H-thymidine uptake. In kind it is cell-based. The settings on record: Homo sapiens, doxorubicin positive control at 1 μM on the plate of the test compound, read-out: % Inhibition of DOX (1 μM).
The next data set concerns mice. The settings on record: intraperitoneal administration (route stated for arsenic trioxide); cited from earlier work.

With `COc1cccc2c1C(=O)c1c(O)c3c(c(O)c1C2=O)C[C@@](O)(C(=O)CO)C[C@@H]3O[C@H]1C[C@H](N)[C@H](O)[C@H](C)O1` [DOX, doxorubicin], in the data set with HL-60 leukemia cells, the inhibition at 1 µM was 100%.
In the case of arsenic trioxide, the “LD50 (a dose at which 50% of animals die due to acute toxicity)” value in the data set on mice is recorded as 10 mg/kg.

The inhibition is the share of the control response that was lost under treatment.
